Data taken from patent US20250114337A1, “METHODS FOR VASCULAR REGENERATION AND WOUND TREATMENT” (THE METHODIST HOSPITAL, priority 2022, published 2025).
“Also recorded” adds a separate entry of the source.

Key:
[1] = tested on: ischemic hindlimb mice model; experiment: hindlimb ischemia recovery in WT C57BL/6 mice, laser doppler imaging; type: in vivo, mouse; conditions: OSMI4 10 mg/kg 0, 1, 2 days post-surgery; younger mice (8 to 12 weeks)
Description: O-GlcNAcylation manipulations regulated recovery from tissue ischemia. To determine if the change in O-GlcNAcylation can modulate limb ischemia recovery, and contributes to vascular recovery, WT C57BL/6 mice were treated with the O-GlcNAcylation inhibitor, OSMI4, or O-GlcNAcylation enhancer, TMG 0, 1, 2 days post-surgery. Age is an important factor that determines recovery, and younger mice are known to have a more robust angiogenic response as compared with older mice. Accordingly, younger mice (between 8 to 12 weeks) were used to assess the impairment of angiogenesis by OSMI (which reduces O-GlcNAcylation). Older mice (around 20 weeks) were used to assess the enhancement of angiogenesis by TMG (which increases O-GlcNAcylation). […] It will be determined whether this beneficial effect is mediated by increased DNA accessibility and enhanced transdifferentiation.
To determine if O-GlcNAcylation manipulations can modulate the overall effect of vascular recovery from limb ischemia. WT C57BL/6 mice were treated with the O-GlcNAcylation inhibitor. OSMI4 (10 mg/kg), or O-GlcNAcylation enhancer. TMG (10 mg/kg) 0, 1, 2 days post-surgery (FIG. 19A).

ischemic hindlimb model = ischemic hindlimb model in fibroblast lineage tracing Fsp1-Cre: R26R-EYFP mice; type: in vivo, mouse; conditions: 7 days post-surgery
Description: Using established transdifferentiation protocol and metabolomics profiling to assess the global metabolic changes during transdifferentiation. […] To determine the role of this metabolite in transdifferentiation, the effect of Thiamet G was assessed, an inhibitor of OGA, which enhances O-GlcNAcylation. Thiamet G increased transdifferentiation efficiency in vitro. In a fibroblast lineage tracing mice, Fsp1-Cre: R26R-EYFP mice, Thiamet G increased tissue O-glycnacylation, increased capillary density and limb perfusion, and increased the number of fibroblasts transdifferentiating into endothelial cells (i.e. FSP+CD31+ cell) in an ischemic hindlimb model.
Angiogenic transdifferentiation in limb ischemia. A fibroblast lineage tracing mouse model (Fsp1-Cre: R26R-EYFP) was used to detect transdifferentiation in vivo in a murine model of limb ischemia (Meng, S., et al., Circulation, 2020. 142 (17): p. 1647-1662). […] This population is abolished when the mice are treated with anti-inflammatory drugs, such as dexamethasone. Intriguingly, the disappearance of these cells is associated with a reduction in perfusion recovery and worsening clinical scores. Similar results are achieved when inflammatory signaling is impaired, as in Fsp1-Cre: Rela flox/flox mice. In these animals, NFκB signaling is blocked in the Fsp1+fibroblasts, associated with a dramatic reduction in transdifferentiated fibroblasts (i.e. YFP+CD144+ cells), and impaired perfusion (Meng. S., et al., Circulation, 2020. 142 (17): p. 1647-1662). […] Cluster 8 produced angiogenic cytokines, whereas Cluster 5 expressed genes associated with EC identity (i.e CD144). But only Cluster 5 could generate EC-like networks in Matrigel whereas other fibroblasts, including Cluster 8 fibroblasts, formed nodal structures typical of fibroblasts in Matrigel. The data support the idea that transdifferentiation may occur in vivo with tissue ischemia, and is dependent on inflammatory signaling. This model can be used to study the contribution of O-GlcNAcylation in transdifferentiation and limb ischemia recovery in vivo. A similar lineage tracing approach can be used with tamoxifen-inducible Col1A2-Cre/ERT: R26R-tdTomato mouse strain to study the contribution of O-GlcNAcylation in transdifferentiation and limb ischemia recovery in vivo.
To determine if O-GlcNAcylation enhances revascularization through transdifferentiation, fibroblasts lineage tracing Fsp1-Cre: R26R-EYFP mice strain were utilized where it was previously observed the in situ transdifferentiation phenomenon (FIG. 20A). In this model, all the fibroblasts expressing Fsp1 (fibroblast-specific protein1) are marked with YFP. With this model, a significant increase in the FSP-expressing cell progeny in the ischemic limb was identified compared with the sham-operated limb 3 days after the femoral artery ligation was perform (FIG. 20A) and compare the YFP+ cells over the different time points (FIG. 20A). The percentage of the YFP+CD31+CD11b-cell population which is considered the transdifferentiation population was analyzed further. […] To determine the role of the O-GlcNAcylation on the transdifferentiation, the Fsp1-Cre: R26R-EYFP mice that are undergoing vascular recovery with OSMI were treated, and the transdifferentiation population in the limb muscle tissue 7 days post-surgery was analyzed.

CCOC(=O)CN(Cc1cccs1)C(=O)[C@H](NS(=O)(=O)c1cc2ccc(=O)[nH]c2cc1Cl)c1ccccc1OC [OSMI]
recovery of blood flow post femoral artery ligation (revascularization) [1]: impaired recovery; also recorded: impairs | transdifferentiation population (YFP+CD31+CD11b-) in limb muscle tissue (ischemic hindlimb model): significantly reduced
